Measurements from patent US8802866B2, “Pyridinylimidazolone derivatives for the inhibition of PI3 kinases” (Merck Patent GmbH, priority 2009, dated 2014).

Tests used:
DNA-PK protein complex = DNA-PK protein complex (Homo sapiens, UniProt P78527); test: Biochemical DNA-PK assay (FlashPlate)
Protocol: The kinase assay is carried out in […] microtitre FlashPlates®, coated with streptavidin. […] The reaction is stopped by addition of 50 μl/well of 200 mM EDTA. After incubation for 30 minutes, the liquids are removed at room temperature. Each well is washed three times with 100 μl of 0.9% NaCl solution. Non-specific reaction (blank) is determined using a proprietary kinase inhibitor (10 μM). The radioactivity is measured by means of a Topcount. […] Todd Eary, J. G. Schiro, H. Huang, L. E. Burgess, E. A. Kesicki, and J. Halbrook.

[1] = tested on: PI3K-dependent phosphorylation of PKB at Serin 473 in PC3 cells; test: Cellular PI3K assay (P-S473-PKB Luminex assay in PC3 cells); format: cell-based; conditions: Homo sapiens, PC-3, 0.5 h; PC3 cells, 30 min, serum-free, P-S473-PKB; read-out: IC50 (cell)
Protocol: The cellular assay for determination of the P-S473-PKB level is carried out as a Luminex assay in 96-well format in PC3 cells.
PC3 cells are sown out with 20,000 cells per well in 100 μl medium (45% […]/45% Ham's F12/10% FCS) and incubated on the following day for 30 min with a serial dilution of the test substance (7 concentrations) under serum-free conditions. The cells are subsequently lysed using 90 μl of lysis buffer (20 mM Tris/HCl pH 8.0, 150 mM NaCl, 1% NP40, 10% glycerol, 1% phosphatase inhibitor I, 1% phosphatase inhibitor II, 0.1% protease inhibitor cocktail III, 0.01% benzonase) per well, and the lysates are separated off from insoluble cell constituents by means of centrifugation through a 96-well filter plate (0.65 μm). The lysates are incubated overnight at 4° C. with shaking with Luminex beads to which an anti-total PKB antibody is coupled. The detection is carried out on the following day by addition of a P-S473-PKB antibody and a species-specific PE-labelled secondary antibody. The detection of P-S473-PKB is carried out by measurement in a Luminex100 instrument by determination of 100 events per cavity in a measurement time of 60 sec.

PI3Kalpha = PI3Kalpha (Homo sapiens, UniProt P42336); test: Biochemical PI3Kalpha assay (neomycin SPA, lipid phosphorylation); conditions: human recombinant GST-PI3K
PI3Kalpha, sequence (P42336 whole entry): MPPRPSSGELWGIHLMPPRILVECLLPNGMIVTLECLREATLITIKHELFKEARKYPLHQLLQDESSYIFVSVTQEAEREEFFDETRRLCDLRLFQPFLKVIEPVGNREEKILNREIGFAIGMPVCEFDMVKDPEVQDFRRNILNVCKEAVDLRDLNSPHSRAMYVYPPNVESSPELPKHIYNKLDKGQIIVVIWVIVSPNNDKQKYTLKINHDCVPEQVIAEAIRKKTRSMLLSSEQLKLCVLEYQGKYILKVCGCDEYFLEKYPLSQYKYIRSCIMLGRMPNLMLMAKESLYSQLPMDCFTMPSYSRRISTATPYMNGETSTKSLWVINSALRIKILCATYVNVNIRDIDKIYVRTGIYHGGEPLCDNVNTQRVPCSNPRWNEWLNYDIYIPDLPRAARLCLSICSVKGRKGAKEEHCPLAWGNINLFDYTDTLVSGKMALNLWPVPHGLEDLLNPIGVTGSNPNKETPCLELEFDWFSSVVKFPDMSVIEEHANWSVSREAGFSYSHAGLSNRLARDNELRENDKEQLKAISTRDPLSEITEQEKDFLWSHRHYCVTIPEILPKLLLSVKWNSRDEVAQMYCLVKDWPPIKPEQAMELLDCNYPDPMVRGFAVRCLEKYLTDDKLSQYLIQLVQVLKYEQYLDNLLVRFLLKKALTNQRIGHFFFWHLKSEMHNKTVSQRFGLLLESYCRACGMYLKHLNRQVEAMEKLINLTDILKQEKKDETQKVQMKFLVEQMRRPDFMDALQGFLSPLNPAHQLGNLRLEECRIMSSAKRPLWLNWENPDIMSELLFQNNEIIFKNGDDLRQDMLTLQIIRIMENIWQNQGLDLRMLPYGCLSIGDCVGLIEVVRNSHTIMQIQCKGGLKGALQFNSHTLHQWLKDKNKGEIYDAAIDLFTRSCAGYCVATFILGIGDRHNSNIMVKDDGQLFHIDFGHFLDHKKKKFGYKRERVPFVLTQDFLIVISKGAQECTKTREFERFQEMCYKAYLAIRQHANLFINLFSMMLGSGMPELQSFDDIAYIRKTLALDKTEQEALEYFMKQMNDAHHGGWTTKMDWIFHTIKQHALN
PI3Kalpha, sequence (P27986 whole entry partner): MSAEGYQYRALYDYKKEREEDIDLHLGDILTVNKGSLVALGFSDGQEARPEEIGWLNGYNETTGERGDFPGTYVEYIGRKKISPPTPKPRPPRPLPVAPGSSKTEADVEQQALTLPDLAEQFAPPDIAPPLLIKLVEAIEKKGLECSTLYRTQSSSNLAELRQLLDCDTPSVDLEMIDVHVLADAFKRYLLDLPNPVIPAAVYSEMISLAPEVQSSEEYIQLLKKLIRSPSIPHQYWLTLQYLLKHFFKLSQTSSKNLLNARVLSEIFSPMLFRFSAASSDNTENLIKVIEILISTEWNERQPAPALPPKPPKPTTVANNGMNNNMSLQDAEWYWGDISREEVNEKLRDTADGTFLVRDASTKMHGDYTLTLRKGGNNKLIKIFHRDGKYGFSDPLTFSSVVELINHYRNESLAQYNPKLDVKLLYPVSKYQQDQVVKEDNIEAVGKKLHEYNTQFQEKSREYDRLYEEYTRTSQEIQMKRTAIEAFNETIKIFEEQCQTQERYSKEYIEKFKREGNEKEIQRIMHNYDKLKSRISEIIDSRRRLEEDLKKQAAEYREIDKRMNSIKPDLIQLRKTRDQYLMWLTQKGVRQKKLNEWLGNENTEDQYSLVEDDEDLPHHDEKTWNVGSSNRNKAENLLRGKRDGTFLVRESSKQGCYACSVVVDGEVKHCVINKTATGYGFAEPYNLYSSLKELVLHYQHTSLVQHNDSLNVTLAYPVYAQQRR
Protocol: (§1) The efficacy of the compounds according to the invention in the inhibition of PI3K-induced lipid phosphorylation can be investigated in the following binding assay. The assay combines scintillation proximity assay (SPA) technology (Amersham) with the ability of neomycin (a polycationic antibiotic) to bind phospholipids with high affinity and specificity. […] The coating of SPA beads with neomycin allows the detection of phosphorylated lipid substrates after incubation with recombinant PI3K and radioactive ATP in the same well by trapping the radioactive phospholipids by the SPA beads owing to their specific binding to neomycin. […] After incubation at room temperature for 120 minutes with gentle stirring, the reaction was stopped by addition of 200 μl of a solution comprising 250 μg of neomycin-coated PVT-SPA beads, ATP 60 mM and EDTA 6.2 mM in PBS. The assay is incubated at room temperature for a further 60 minutes with gentle stirring in order to enable binding of the phospholipids to the neomycin-SPA beads. After precipitation of the neomycin-coated PVT-SPA beads over 5 minutes at 1500×g, radioactive Ptdlns(3)P is quantified by scintillation counting in a Wallac Micro-Beta™ plate counter.

[2] = biological target: recombinant PI3Kalpha (shortened form of the catalytic subunit) (Homo sapiens, UniProt P42336); test: BIACORE PI3K binding assay (SPR); conditions: 25° C.
recombinant PI3Kalpha (shortened form of the catalytic subunit), sequence (P42336 151-1068 limits assumed): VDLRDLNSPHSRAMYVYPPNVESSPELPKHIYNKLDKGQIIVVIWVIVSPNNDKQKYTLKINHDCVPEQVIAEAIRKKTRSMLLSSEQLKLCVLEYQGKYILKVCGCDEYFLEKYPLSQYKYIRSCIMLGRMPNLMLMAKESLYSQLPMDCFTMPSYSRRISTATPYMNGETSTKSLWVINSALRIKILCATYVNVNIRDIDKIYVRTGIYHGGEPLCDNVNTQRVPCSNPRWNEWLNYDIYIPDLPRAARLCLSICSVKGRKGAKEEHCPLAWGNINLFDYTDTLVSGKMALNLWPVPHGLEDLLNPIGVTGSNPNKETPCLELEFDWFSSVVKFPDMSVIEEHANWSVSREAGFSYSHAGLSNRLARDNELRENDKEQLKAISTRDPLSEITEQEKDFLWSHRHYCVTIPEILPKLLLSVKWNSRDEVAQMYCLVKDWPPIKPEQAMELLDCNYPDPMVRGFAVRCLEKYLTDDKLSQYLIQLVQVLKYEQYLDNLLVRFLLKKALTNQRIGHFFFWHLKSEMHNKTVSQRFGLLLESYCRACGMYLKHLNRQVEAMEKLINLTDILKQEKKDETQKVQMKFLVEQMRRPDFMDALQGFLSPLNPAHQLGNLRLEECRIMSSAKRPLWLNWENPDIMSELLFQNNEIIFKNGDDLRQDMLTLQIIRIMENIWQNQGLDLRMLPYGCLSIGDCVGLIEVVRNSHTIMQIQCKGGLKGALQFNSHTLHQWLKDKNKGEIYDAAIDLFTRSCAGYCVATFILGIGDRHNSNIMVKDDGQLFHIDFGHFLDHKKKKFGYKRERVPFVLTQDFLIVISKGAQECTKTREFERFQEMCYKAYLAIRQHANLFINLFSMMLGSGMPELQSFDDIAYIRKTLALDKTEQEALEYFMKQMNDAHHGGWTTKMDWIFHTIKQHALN
Protocol: SPR measurements of the binding affinities and binding kinetics on PI3Kalpha surfaces with the aid of Biacore systems. The experiments are carried out on a Biacore S51 “Compound Characterization” or a Biacore T100 instrument utilising the default application “Kinetics/Affinity” Experimental conditions: recombinant PI3Kalpha (shortened form of the catalytic subunit, missing N terminal from about 100 to 150 aa, Mw about 110 kDa, prepared by Proteros Biostructures GmbH) is immobilised on Biacore CM5 chips (25° C., flow rate: 10 μl/min, utilising amine coupling at pH 7.40—Biacore Standard protocol). PI3Kalpha is employed in concentrations between 10 and 25 μg/ml. Depending on the duration of the injection time, immobilisation levels from 1700 to 11000 RU are achieved. The substances to be measured are added in the form of a titration series. The substance concentration is doubled for each subsequent injection. 10 different substance concentrations which cover a 500-fold dilution range are usually injected. […] Kinetic titration experiments are carried out at 25° C. with a flow rate of 30 μl/min, the sample contact time is 180 s, and the dissociation time is 240 s in a running buffer (20 mM HEPES pH7.40, 150 mM NaCl, 5 mM MgCl2, 1 mM DTT, 0.1 mM EDTA, 0.05% Tween 20) comprising 2% of DMSO. Buffer injections (as double references) identical to the sample injections are carried out in each case at the beginning of a continuous series. Solvent correction cycles (eight correction points, 1.4%-2.8% DMSO) are carried out at equal intervals. In order to condition the surface, at least five start-up cycles (buffer injections) are carried out. Data points are collected with a sample rate of 10 Hz. Surface regeneration is carried out after each measurement cycle, apart from after the solvent correction runs. For this purpose, two times 100 mM NaHCO3 pH 8.60 are injected for 30 sec. Data sets are processed and analysed using the Biacore S51 Evaluation software, version 1.2.1, or Biacore T100 Evaluation, version 2.0. Solvent-corrected and double-referenced association and dissociation phase data are adapted to a simple 1:1 interaction model with mass transport limitations.

PI3Kbeta = PI3Kbeta (Homo sapiens, UniProt P42338); test: Biochemical PI3Kbeta assay (neomycin SPA, lipid phosphorylation); conditions: human recombinant GST-PI3K
PI3Kbeta, sequence (P42338 whole entry): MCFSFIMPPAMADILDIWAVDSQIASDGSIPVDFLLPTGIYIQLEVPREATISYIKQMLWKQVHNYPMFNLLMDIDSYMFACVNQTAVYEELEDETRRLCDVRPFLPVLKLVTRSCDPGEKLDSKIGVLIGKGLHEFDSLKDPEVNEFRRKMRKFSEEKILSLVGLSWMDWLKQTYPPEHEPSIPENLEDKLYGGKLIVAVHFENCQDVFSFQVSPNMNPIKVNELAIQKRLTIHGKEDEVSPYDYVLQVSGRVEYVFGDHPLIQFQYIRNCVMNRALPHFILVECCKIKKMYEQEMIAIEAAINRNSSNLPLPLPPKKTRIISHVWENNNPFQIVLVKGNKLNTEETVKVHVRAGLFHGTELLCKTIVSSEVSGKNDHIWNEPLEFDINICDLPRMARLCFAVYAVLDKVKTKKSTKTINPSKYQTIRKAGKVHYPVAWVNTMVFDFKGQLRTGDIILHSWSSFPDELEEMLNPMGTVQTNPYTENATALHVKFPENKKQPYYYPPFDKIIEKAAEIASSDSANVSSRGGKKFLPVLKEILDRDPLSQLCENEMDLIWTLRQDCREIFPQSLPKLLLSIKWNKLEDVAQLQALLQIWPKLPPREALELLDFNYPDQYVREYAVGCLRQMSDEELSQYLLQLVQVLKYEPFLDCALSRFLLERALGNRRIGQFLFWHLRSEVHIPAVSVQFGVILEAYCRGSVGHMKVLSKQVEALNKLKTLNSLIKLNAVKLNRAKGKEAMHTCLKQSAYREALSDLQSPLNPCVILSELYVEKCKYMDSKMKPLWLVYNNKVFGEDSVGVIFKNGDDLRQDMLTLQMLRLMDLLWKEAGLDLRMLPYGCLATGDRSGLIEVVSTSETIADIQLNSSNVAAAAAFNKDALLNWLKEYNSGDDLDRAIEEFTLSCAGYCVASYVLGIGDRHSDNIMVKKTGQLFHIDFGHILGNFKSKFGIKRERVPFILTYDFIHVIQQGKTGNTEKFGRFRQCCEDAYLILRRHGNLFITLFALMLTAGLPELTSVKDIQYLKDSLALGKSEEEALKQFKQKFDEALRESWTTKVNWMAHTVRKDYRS
PI3Kbeta, sequence (P27986 whole entry partner): as the sequence (P27986 whole entry partner) above
Protocol: as §1

IC50 (DNA-PK protein complex) [nM]	IC50 [1] [nM]	IC50 (PI3Kalpha) [nM]	Kd [2] [nM]	IC50 (PI3Kbeta) [nM]	Compound
0.1 to 100	100 to 10000	100 to 10000	100 to 10000	100 to 10000	Cn1cc(-c2cc(-c3cnc4[nH]ccc4c3)ccn2)n(-c2ccccc2C(F)(F)F)c1=O [Example A67, 1-Methyl-4-[4-(1H-pyrrolo[2,3-b]pyridin-5-yl)pyridin-2-yl]-3-(2-trifluoromethylphenyl)-1,3-dihydroimidazol-2-one]
0.1 to 100	0.1 to 100	100 to 10000	0.1 to 100	100 to 10000	Cn1cc(-c2cc(-c3cnc4[nH]ccc4c3)ccn2)n(-c2ccc(N3CCOCC3)c(C(F)(F)F)c2)c1=O [Example A71, 1-Methyl-3-(4-morpholin-4-yl-3-trifluoromethylphenyl)-4-[4-(1H-pyrrolo[2,3-b]-pyridin-5-yl)pyridin-2-yl]-1,3-dihydroimidazol-2-one]
100 to 10000	100 to 10000	100 to 10000	0.1 to 100	100 to 10000	CN1CCN(c2ccc(-n3c(-c4cc(-c5cnc6[nH]ccc6c5)ccn4)cn(C)c3=O)cc2C#N)CC1 [Example A83, 5-{3-Methyl-2-oxo-5-[4-(1H-pyrrolo[2,3-b]pyridin-5-yl)pyridin-2-yl]-2,3-dihydroimidazol-1-yl}-2-(4-methylpiperazin-1-yl)benzonitrile]
100 to 10000	100 to 10000	100 to 10000	100 to 10000	100 to 10000	Cc1cc2cc(-c3ccnc(-c4cn(C)c(=O)n4-c4ccc(N5CCN(C)CC5)c(C(F)(F)F)c4)c3)cnc2[nH]1 [Example A88, 1-Methyl-3-[4-(4-methylpiperazin-1-yl)-3-trifluoromethylphenyl]-4-[4-(2-methyl-1H-pyrrolo[2,3-b]pyridin-5-yl)pyridin-2-yl]-1,3-dihydroimidazol-2-one]
100 to 10000	100 to 10000	100 to 10000	100 to 10000	> 10000	CC(=O)N1CCN(c2ccc(-n3c(-c4cc(-c5ccc6[nH]ccc6c5)ccn4)cn(C)c3=O)cc2C(F)(F)F)CC1 [Example A89, 3-[4-(4-Acetylpiperazin-1-yl)-3-trifluoromethylphenyl]-4-[4-(1H-indol-5-yl)pyridin-2-yl]-1-methyl-1,3-dihydroimidazol-2-one]
0.1 to 100	0.1 to 100	100 to 10000	0.1 to 100	100 to 10000	Cn1cc(-c2cc(-c3cnc4[nH]ccc4c3)ccn2)n(-c2cccc(Oc3ccccc3)c2)c1=O [Example A90, 1-Methyl-3-(3-phenoxyphenyl)-4-[4-(1H-pyrrolo[2,3-b]pyridin-5-yl)pyridin-2-yl]-1,3-dihydroimidazol-2-one]
100 to 10000	100 to 10000	100 to 10000	100 to 10000	100 to 10000	Cn1cc(-c2cc(-c3cnc(N)c(C(F)(F)F)c3)ccn2)n(-c2ccc(F)c(C(F)(F)F)c2)c1=O [Example A97, 4-(6-Amino-5-trifluoromethyl-[3,4′]bipyridinyl-2′-yl)-3-(4-fluoro-3-trifluoromethyl-phenyl)-1-methyl-1,3-dihydroimidazol-2-one]
100 to 10000	> 10000	100 to 10000	100 to 10000	100 to 10000	CN1CCN(c2cc(C#N)cc(-n3c(-c4cc(-c5cnc6[nH]ccc6c5)ccn4)cn(C)c3=O)c2)CC1 [Example A98, 3-{3-Methyl-2-oxo-5-[4-(1H-pyrrolo[2,3-b]pyridin-5-yl)pyridin-2-yl]-2,3-dihydro-imidazol-1-yl}-5-(4-methylpiperazin-1-yl)benzonitrile]

Second part, the compound before the results:

Compound	IC50 (DNA-PK protein complex) [nM]	IC50 [1] [nM]	IC50 (PI3Kalpha) [nM]	Kd [2] [nM]	IC50 (PI3Kbeta) [nM]
Cn1cc(-c2cc(-c3cnc4[nH]ccc4c3)ccn2)n(-c2ccccc2C#N)c1=O [Example A69, 2-{3-Methyl-2-oxo-5-[4-(1H-pyrrolo[2,3-b]pyridin-5-yl)pyridin-2-yl]-2,3-dihydroimidazol-1-yl}benzonitrile]	> 10000	> 10000	> 10000	100 to 10000	> 10000
Cn1cc(-c2cc(-c3cnc(N)c(-c4ccccc4)c3)ccn2)n(-c2ccc(C(C)(C)C#N)cc2)c1=O [Example A84, 2-{4-[5-(6-Amino-5-phenyl-[3,4′]bipyridinyl-2′-yl)-3-methyl-2-oxo-2,3-dihydroimidazol-1-yl]phenyl}-2-methylpropionitrile]	0.1 to 100	100 to 10000	0.1 to 100	0.1 to 100	100 to 10000
CCc1cc(-c2c[nH]c3ncc(-c4ccnc(-c5cn(C)c(=O)n5-c5ccc(C(C)(C)C#N)cc5)c4)cc23)nc(N)n1 [Example A99, 2-[4-(5-{4-[3-(2-Amino-6-ethylpyrimidin-4-yl)-1H-pyrrolo[2,3-b]pyridin-5-yl]-pyridin-2-yl}-3-methyl-2-oxo-2,3-dihydroimidazol-1-yl)phenyl]-2-methylpropionitrile]	0.1 to 100	100 to 10000	100 to 10000	100 to 10000	100 to 10000
COc1ccc(Cn2c(-c3cc(-c4cnc5[nH]ccc5c4)ccn3)cn(C)c2=O)cc1 [Example A108, 3-(4-Methoxybenzyl)-1-methyl-4-[4-(1H-pyrrolo[2,3-b]pyridin-5-yl)pyridin-2-yl]-1,3-dihydroimidazol-2-one]	0.1 to 100	100 to 10000	> 10000	100 to 10000	> 10000
COc1ccc(Cn2c(-c3cc(-c4cnc5[nH]ncc5c4)ccn3)cn(C)c2=O)cc1 [Example A109, 3-(4-Methoxybenzyl)-1-methyl-4-[4-(1H-pyrazolo[3,4-b]pyridin-5-yl)pyridin-2-yl]-1,3-dihydroimidazol-2-one]	0.1 to 100	100 to 10000	100 to 10000	100 to 10000	100 to 10000
COc1ccc(Cn2c(-c3cc(-c4cnc(N)c(C(F)(F)F)c4)ccn3)cn(C)c2=O)cc1 [Example A110, 4-(6-Amino-5-trifluoromethyl-[3,4′]bipyridinyl-2′-yl)-3-(4-methoxybenzyl)-1-methyl-1,3-dihydroimidazol-2-one]	100 to 10000	100 to 10000	100 to 10000	100 to 10000	100 to 10000
